Data as given in patent US20260364214A1, “MULTIVALENT FIBROBLAST ACTIVATION PROTEIN LIGANDS FOR TARGETED DELIVERY APPLICATIONS” (Philochem AG, priority 2022, published 2026).

System: SK-RC-52.hFAP tumors
Test: Therapeutic efficacy in dose escalation and in combination with L19-IL2
Assay type: in vivo, mouse (athymic Balb/c AnNRj-Foxn1)
Conditions: 5, 15 or 30 MBq/mouse on day 7
Protocol: Prior to the therapy studies, precursors (25 nmol) were dissolved in 25 μL of milliQ water, then sodium acetate buffer (75 μL, 1 M in water) and 25, 75 or 150 MBq of ^177Lu solution were added. The mixture was heated at 90 °C for 1 minutes followed by dilution with 400 μL of PBS to afford a final volume of 500 μL (5 doses of 100 μL each). Quality control of radiosynthesis was performed using radio-HPLC.
The anti-cancer efficacy of L19-IL2 as single agent (3×0.05 mg/mouse), ^177Lu-Tri-ESV6 as single agent at different doses (5 MBq/mouse, 15 MBq/mouse, 30 MBq/mouse), ^177Lu-Tri-ESV6+L19-IL2 combination (5 MBq/mouse of ^177Lu-Tri-ESV6 followed by three injections of L19-IL2 at 0.05 mg/mouse) or saline was assessed in athymic Balb/c AnNRj-Foxn1 mice bearing SK-RC-52.hFAP tumor in the right flank. Therapy experiments started when the average volume of established tumors had reached 100-150 mm^3. Body weight of the animals and tumor volume were daily measured and recorded. Tumor dimensions were measured with an electronic caliper and tumor volume was calculated with the formula (long side, mm)×(short side, mm)×(short side, mm)×0.5. Animals were euthanized when one or more termination criterium indicated by the experimental license was reached. Prism 7 software (GraphPad Software) was used for data analysis. […]

N#CC1CC(F)(F)CN1C(=O)CNC(=O)c1ccnc2c(NC(=O)CCC(=O)NCCNC(=O)CCOCC(COCCC(=O)NCCNC(=O)CCC(=O)Nc3cccc4c(C(=O)NCC(=O)N5CC(F)(F)CC5C#N)ccnc34)(COCCC(=O)NCCNC(=O)CCC(=O)Nc3cccc4c(C(=O)NCC(=O)N5CC(F)(F)CC5C#N)ccnc34)NC(=O)CCC(C(=O)O)N3CCN(CC(=O)[O-])CCN(CC(=O)[O-])CCN(CC(=O)[O-])CC3)cccc12.[177Lu+3] (stereo not shown) [^177Lu-Tri-ESV6-DOTAGA]
therapeutic activity, in words: dose-dependent therapeutic activity
